Data from US8796452B2, “Preparation of lamivudine form I” (Merck Sharp & Dohme Corp., priority 2010, dated 2014).

Experiments:
[1] = EtOH-water mixtures at 25° C.; cited from earlier work
[2] = Equilibration of physical mixtures of Forms I, II and III in water-2-butanone solvent systems (most thermodynamically stable crystal form); assay type: physicochemical; settings: for water content of water-2-butanone mixtures in which Form I is thermodynamically stable: slurry equilibrated by aging
Protocol: Each admixture was then equilibrated by aging at its temperature until the relative amounts of each crystalline form remained constant. At the completion of equilibration, each admixture contained a slurry of a single crystal form, or a slurry in which one crystal form dominates. This crystal form is the most thermodynamically stable at the admixture conditions of temperature and water concentration. Form. […] Similarly, Form I was determined to be thermodynamically stable in water-2-butanone mixtures at about 25° C. when the mixtures contained from 3.5 to 6.0 wt. % water, and at about 50° C. when the mixtures contained from 5.0 to 8.5 wt. % water. Additional data was collected for the boundary between form I and form III; i.e., at 20° C. […] The data are shown in a phase map of temperature versus wt. % water in FIG. 1.

[3] = milling, or storage at up to 45° C. at a relative humidity of 25% to 85%; Form I made by the process of WO 2009/069013; cited from earlier work

water content in 2-butanone at which Form I is more stable than Form III (Form I/Form III boundary) ([2]; 20° C.): less than 5.7 wt % water
water content in 2-butanone at which Form I is more stable than Form III (Form I/Form III boundary) ([2]; 30° C.): less than 6.6 wt % water
water content of water-2-butanone mixtures in which Form I is thermodynamically stable ([2]; about 0° C.): 2.5 to 5.0 wt. % water
water content of water-2-butanone mixtures in which Form I is thermodynamically stable ([2]; about 25° C.): 3.5 to 6.0 wt. % water
water content of water-2-butanone mixtures in which Form I is thermodynamically stable ([2]; about 50° C.): 5.0 to 8.5 wt. % water
SMILES: Nc1ccn([C@@H]2CS[C@H](CO)O2)c(=O)n1 [Form I]
water that must be present in EtOH to convert the excess solid to Form I at equilibrium [1]: 18-20%
conversion of Form I to Form II [3]: will not convert to Form II
